Reference: article PMC8494734 (Scientific Reports, 2021)

Experiments:
[1] = biological target: T1, recombinant NirK protein (MRA2164) (Mycobacterium tuberculosis, UniProt A5U4H6); test: biochemical; conditions: read-out: % inhibition at 5 mM
T1 construct: gene yfiH

[2] = biological target: T1, recombinant NirK protein (MRA2164)
O=NO = test: purified protein; conditions: pH 7.0; 37.0 °C

T1 sequence (A5U4H6 entry or part of it): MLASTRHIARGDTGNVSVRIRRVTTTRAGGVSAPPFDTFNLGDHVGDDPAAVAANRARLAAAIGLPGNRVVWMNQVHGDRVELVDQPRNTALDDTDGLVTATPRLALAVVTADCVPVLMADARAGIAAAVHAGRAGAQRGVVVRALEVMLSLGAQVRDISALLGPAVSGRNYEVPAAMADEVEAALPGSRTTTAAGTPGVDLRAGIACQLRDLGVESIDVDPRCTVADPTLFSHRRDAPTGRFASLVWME

Molecule | % inhibition at 5 mM [2] [%] | also measured
NC(=O)C1=CN([C@@H]2O[C@H](COP(=O)(O)OP(=O)(O)OC[C@H]3O[C@@H](n4cnc5c(N)ncnc54)[C@H](O)[C@@H]3O)[C@@H](O)[C@H]2O)C=CC1 [NADH] |  | inhibition at 5000 µM [1]: 92.3%
[N-]=[N+]=[N-] [azide] | 95.16 | 
O=[N+]([O-])O [nitrate] | 47.40 | 
recombinant NirK protein (MRA2164) (Mycobacterium tuberculosis H37Ra) |  | Km (O=NO): 17.16 mM
